The values that follow come from US5124146A, “Differential delivery of therapeutic agents across the blood brain barrier” (The State of Oregon Acting by and through the State Board …, priority 1991, dated 1992).

A short description of series [1]: percent clearance of activity from serum by perfusion. Type of series: in vivo, Sprague-Dawley rat. The note with it: for C1: percent clearance of activity from serum: individual rat, postperfusion/preperfusion × 100. The method, then: Subsequently, dosages of ^125 I-gentamicin were administered intravenously.
C1: Percent clearance of activity from serum

In a further series the test system is antigentamicin antibody. The series is described as follows: precipitable radioactivity (% bound) in tissue and serum after antigentamicin antibody (immune serum). Type of series: in vivo. The source says:
(§1) Pre: Precipitable radioactivity from serum prior to antibody
(§2) Post: Precipitable radioactivity from serum after antibody administration
(§3) PPer: Precipitable radioactivity from serum after perfusion of rat
(§4) % Bound: Percent precipitable radioactivity from tissue sample

A further series concerns serum proteins. Description: non-specific precipitation/binding of gentamicin to serum proteins and tissue (pre-antibody serum, or non-immune serum). Type of series: in vivo, Sprague-Dawley rat. The note with it: non-immune serum, pre and post serum.
Description: as §1, §2, §3, §4

For series [2] the following is noted: injected directly into the rat brain; cited from earlier work.

Several values for one entry are separate records, joined by “and”; a condition that tells them apart may be missing. Equal entries are not always repeated.

With gentamicin, in series [1] (Immune serum), the “C1: percent clearance of activity from serum” value was 99% and 97% and 92% and 95% and 94% and 96%; the “C1: percent clearance of activity from serum, mean value” is listed as 96%. Besides, in series [1] (Non immune serum), the “C1: percent clearance of activity from serum” value is 84% and 86% and 85%; the “C1: percent clearance of activity from serum, mean value” is on record as 85%. Further, in the series with antigentamicin antibody (individual rat), the “% Bound: percent precipitable radioactivity from tissue sample, LH (non abscess bearing hemisphere)” value was 49% and 55% and 52% and 41% and 50%. For the same compound, in the series on antigentamicin antibody (individual rat, 15 minutes after antibody), the “% Bound, Post: precipitable radioactivity from serum after antibody administration” value was 97% and 96% and 94%. The “% Bound, P-Per: precipitable radioactivity from serum after perfusion of rat” value in the series on antigentamicin antibody (individual rat, after perfusion) is 75% and 70% and 79% and 77%. Besides, in the series on antigentamicin antibody (mean), the “% Bound (tissue), AB (abscess), mean value” came to 56% and the “% Bound (tissue), LH (non abscess bearing hemisphere), mean value” is listed as 51%. Also, in the series with antigentamicin antibody (mean, 15 minutes after antibody), the “% Bound, Post: serum precipitation after antibody, mean value” came out at 96%. The “% Bound, P-Per: serum precipitation after perfusion, mean value” with antigentamicin antibody (mean, after perfusion) turned out to be 70%. In addition, in the series with serum proteins, the “non-specific precipitation with serum proteins (in words)” value is “nonspecifically precipitates with serum proteins”.

`CCCCC/C=C\C/C=C\C/C=C\C/C=C\CCCC(=O)O` [arachidonic acid]: the “effect on BBB permeability” value in series [2] is given as “increase BBB permeability”.
